Source: patent US12490760B2, “Compound and flavor-imparting composition using same” (T. HASEGAWA CO., LTD., priority 2021, dated 2025)

Key:
[1] = Stability in sugar-acid solution, quantified by GC/MS internal standard method; type: physicochemical; settings: 0.1% in sugar-acid solution (7% granulated sugar, 0.12% citric acid); room temperature (25° C.), 8 weeks, light shielding
Procedure: A stability of the present compound was evaluated by the following procedure. An aqueous solution including 7% granulated sugar and 0.12% citric acid (hereinafter, which may be referred to as a sugar-acid solution) was prepared. To this sugar-acid solution, the present invention product 1-1 was added so that the concentration was 0.1% to obtain the present invention product 3-1. As a comparative reference to the present compound, citral was added to a separately prepared sugar-acid solution so that the concentration was 0.1% to obtain the comparative product 3-1. Then, the present invention product 3-1 and the comparative product 3-1 were stored at room temperature (25° C.) for 8 weeks under light shielding. On the present invention product 3-1 and the comparative product 3-1, the present compound and citral were quantitatively analyzed by the internal standard method by using 2-chlorophenol as an internal standard substance under the following GC analysis conditions. The measurements were performed by using a GC/MS (apparatus name: GC 7890A/MSD 5975C, manufactured by Agilent Technologies Japan, Ltd.). […]

[2] = Aroma properties: 1% ethanol solutions sniffed by panelists; settings: 1% ethanol solution; sniffed by 5 well-trained panelists; representative comments
Procedure: An aroma of the present compound was evaluated by the following procedure. A 1% ethanol solution of the present invention product 1-1 was prepared and used as the present invention product 2-1. As a comparative reference to the present compound, a 1% ethanol solution of citral was prepared and used as the comparative product 2-1, and a 1% ethanol solution of 4,8-dimethylnona-3,7-dien-2-one was prepared and used as the comparative product 2-2. 5 well-trained panelists having 10 years or more of experience sniffed at the present invention product 2-1 and the comparative products 2-1 and 2-2, and commented on felt aromas.

[3] = Detecting threshold concentration; settings: compared with citral

| SMILES | concentration after storage relative to the initial concentration [1] | Comment (felt aromas) [2] | detecting threshold concentration [3] |
| --- | --- | --- | --- |
| CC(C)=CCCC(C)=CC=O [citral, reference compound] | completely disappeared | – | – |
| C=C(CCC=C(C)C)CC(C)=O [present compound, 8-methyl-4-methylenenona-7-en-2-one] | 90% | does not have the aspect of floral aromas | the same level as that of citral |
